Values quoted from earlier work in US8916150B2 (priority 2009, dated 2014).

Key:
[1] = system: botulinum toxin light chain (LC)
[2] = in vivo
LC of BoNT-A = LC of BoNT-A (Clostridium botulinum, UniProt P0DPI1)
LC of BoNT-A, sequence (P0DPI1 2-448 limits assumed): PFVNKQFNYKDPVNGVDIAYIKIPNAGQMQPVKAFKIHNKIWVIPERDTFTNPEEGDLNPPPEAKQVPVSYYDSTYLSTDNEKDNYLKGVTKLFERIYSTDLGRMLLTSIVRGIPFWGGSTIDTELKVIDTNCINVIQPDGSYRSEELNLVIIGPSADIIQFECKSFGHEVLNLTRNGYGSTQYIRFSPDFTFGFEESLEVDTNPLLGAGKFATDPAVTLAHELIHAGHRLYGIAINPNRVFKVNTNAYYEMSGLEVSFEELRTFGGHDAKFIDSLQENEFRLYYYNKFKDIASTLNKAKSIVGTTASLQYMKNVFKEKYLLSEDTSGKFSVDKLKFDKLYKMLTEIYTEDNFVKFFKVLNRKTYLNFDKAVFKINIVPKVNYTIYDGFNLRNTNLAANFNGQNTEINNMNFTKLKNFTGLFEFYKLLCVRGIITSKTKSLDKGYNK

For O=C(O)CN(CCN(CC(=O)O)CC(=O)O)CC(=O)O [EDTA, ethylenediaminetetraacetate], the “effect on LC enzymatic activity on removal of Zn2+” value [1] is listed as “completely abolishes enzymatic activity”.

For CC(=O)[O-].CC(=O)[O-].[Zn+2] [zinc acetate], the “nausea and vomiting after single dose” value [2] is given as “induces nausea and vomiting”.

In the case of [Cl-].[Cl-].[Zn+2] [zinc chloride], the “effect on autocatalytic fragmentation of LC” value (LC of BoNT-A) is given as “enhanced”.
